# Tested on: uptake of 14C-cholesterol by the liver (cholesterol absorption)
# Assay: Cholesterol absorption test: uptake of 14C-cholesterol by the liver after peroral test meal
# Type: in vivo, NMRI mice
# Details: dose at which uptake of 14C-cholesterol by the liver was halved (50%) vs control group; test substance given perorally immediately prior to test meal; mouse
# Source text: Effect of the Compounds of the Invention on Cholesterol Absorption and ^3H-taurocholic Acid Excretion Using Fecal Excrement of Mice, Rats or Hamsters
# NMRI mice, Wistar rats, or Golden Syrian hamsters (in groups of n=4-6) were kept in metabolic cages, where they were fed with a standard diet (Altromin, Lage (Lippe)). The afternoon prior to the administration of the radioactive tracers (^14C-cholesterol), the feed was removed and the animals were adapted to grates.
# Additionally, the animals were labeled s.c. with ^3H-TCA (taurocholic acid) (for example 1 μCi/mouse up to 5 μCi/rat) 24 hours prior to the peroral administration of the test meal (^14C-cholesterol in Intralipid® 20, Pharmacia-Upjohn).
# Cholesterol absorption test: 0.25 ml/mouse Intralipid® 20 (Pharmacia-Upjohn) ((spiked with 0.25 μCi of ^14C-cholesterol in 0.1 mg of cholesterol) was administered perorally by gavage.
# Test substances were prepared separately in 0.5% methylcellulose (Sigma)/5% Solutol (BASF, Ludwigshafen) or a suitable vehicle.
# The administration volume of the test substance was 0.5 ml/mouse. The test substance was administered immediately prior to the test meal (Intralipid labeled with ^14C-cholesterol) (cholesterol absorption test).
# The feces were collected over a period of 24 h: fecal elimination of ^14C-cholesterol and ^3H-taurocholic acid (TCA) was determined after 24 hours.
# The livers were removed and homogenized, and aliquots were incinerated in an oximate (Model 307, Packard) to determine the amount of ^14C-cholesterol which had been taken up/absorbed.
# The amount of ^14C-cholesterol taken up by the liver was based on the administered dose. The ED50 values were interpolated from a dose-effect curve as the dose at which the uptake of ^14C-cholesterol by the liver was halved (50%), based on a control group.
row,Compound,ED50 (liver) [mg/mouse]
1,"N=C(N)c1ccc(C2C(CCC(O)c3ccc(F)cc3)C(=O)N2c2ccc(F)cc2)cc1 (centres unmarked) [II, 4-{1-(4-Fluorophenyl)-3-[3-(4-fluorophenyl)-3-hydroxypropyl]-4-oxoazetidin-2-yl}benzamidine]",0.1
2,"O=C(CCCCCCCCCCC[N+]12CCN(CC1)CC2)NCc1ccc(C2C(CCC(O)c3ccc(F)cc3)C(=O)N2c2ccc(F)cc2)cc1.O=C([O-])C(F)(F)F (centres unmarked) [IX, 1-[11-(4-{1-(4-Fluorophenyl)-3-[3-(4-fluorophenyl)-3-hydroxypropyl]-4-oxoazetidin-2-yl}benzylcarbamoyl)undecyl]-4-aza-1-azoniabicyclo[2.2.2]octane trifluoroacetate]",0.1
3,O=C(CCCCC[N+]12CCN(CC1)CC2)NCc1ccc(C2C(CCC(O)c3ccc(F)cc3)C(=O)N2c2ccc(F)cc2)cc1.O=C([O-])C(F)(F)F (centres unmarked) [VII],0.1
4,"O=C(CCCCCCCCCCC[N+]12CCN(CC1)CC2)NCc1ccc(N2C(=O)C(CCC(O)c3ccccc3)C2c2ccccc2)cc1.O=C([O-])C(F)(F)F (centres unmarked) [X, 1-[11-{4-[3-(3-Hydroxy-3-phenylpropyl)-2-oxo-4-phenylazetidin-1-yl]benzylcarbamoyl}undecyl)-4-aza-1-azoniabicyclo[2.2.2]octane trifluoroacetate]",<1.0
5,"COc1ccc(C2C(CCC(O)c3ccc(F)cc3)C(=O)N2c2ccc(CNC(=O)CCCCCCCCCCC[N+]34CCN(CC3)CC4)cc2)cc1.O=C([O-])C(F)(F)F (centres unmarked) [XI, 1-[11-{4-[3-[3-(4-Fluorophenyl)-3-hydroxypropyl]-2-(4-methoxyphenyl)-4-oxoazetidin-1-yl]benzylcarbamoyl}undecyl)-4-aza-1-azoniabicyclo[2.2.2]octane trifluoroacetate]",0.3
